Experiments:
[1] = test system: human hepatoma cell line Bel-7402; experiment: SRB proliferation assay, Bel-7402; type: cell-based; details: Homo sapiens, Bel-7402, 72 h, BEL-7402 cultivated in vitro, given as bounds, read-out: The Inhibition Activities for Human Liver Cancer Cells BEL-7402 (IC50)
Description: Protocol: the antineoplasmic activities in vitro of the compounds were assayed by a Sulforhodamine B (SRB) protocol. Tumor cells were cultivated at 37 under 5% CO2 in a RPMI 1640 medium or a DMEM medium (Gibco) containing 10% fetal bovine serum. Tumor cells were inoculated on a 96-well plate with a concentration of 0.4-1.0×10^4 cells per well according to the cell types. 24 hours later, the target compounds diluted 10 times were added, each compound having at least 5 concentrations. After treated by the compounds for 72 hours, the culture media were discarded, and the cells were fixed by 10% cold trichloroacetic acid, and then stained by Sulforhodamine B (SRB) solution. The uncombined SRB was washed off, and the SRB combined with protein was dissolved with Tris. OD values were recorded at 515 nm on an ELISA Reader, and the cell growth inhibition rate was calculated according to following equation: Inhibition rate=(ODcontrol−ODexperimental)/ODcontrol×100%
IC50 (50% inhibitory concentration) was calculated by using Logit method based on the inhibition rates at various concentration, and the results are shown in tables 1 and 2.
The following cell lines were used: human hepatocarcinoma cell line […]; ovarian cancer cell line SK-OV-3; human breast cancer cell line MDA-MB-231; human renal carcinoma cell line A498; colon adenocarcinoma cell line HT-29; non-small cell lung cancer cell line NCI-H460; lung adenocarcinoma cell line A549; human colon cancer cell line SW-620; human hepatoma cell line Bel-7402; human breast carcinoma cell line SK-BR-3; and human umbilical vein endothelial cells (HUVEC).

[2] = test system: human liver cancer cells Bel-7402 transplanted tumor; type: in vivo; details: for Quantity of Animals Whose Tumors Vanished / Inhibition Rate (%) / Tumor Volume (mm^3): 100 mg/kg, PO, QDx11; for Quantity of Animals Whose Tumors Vanished: 5 animals per group; for Inhibition Rate (%) / Tumor Volume (mm^3): Bel-7402 on nude mice; for tumors vanished (animals/group): at the 11th day; for tumors vanished (animals/group) / toxicity / survivability of mice: intragastrically once a day for 11 days; for recrudescence of tumors: at the end of the experiment (17th day); for toxicity / survivability of mice: nude mice
From the text: Name and lot number: YHHU-744, a white powder, lot No.: No. c001471-106; YHHU-755, a white powder, lot No.: No. c001471-102; YHHU-756, a white powder, lot No.: No. c00147-106; YHHU-759, a white powder, lot No.: No. c001471-102; YHHU-776, a white powder, lot No.: No. c001471-107. Sorafenib was used as a positive control.
Formulation: YHHU-744, YHHU-755, YHHU-756, YHHU-759, YHHU-776 and the positive control were each diluted with 0.1% Tween-80 and distilled water to a desired concentration.
BALB/cA nude mice, 6-7 weeks old, ♀, were purchased from Shanghai SLAC Laboratory Animal Co. LTD. Certificate No.: SCXK (Shanghai) 2007-0005. Habitat: SPF level.
Human liver cancer cells Bel-7402 were inoculated on nude mice subcutaneously. After the tumor grew up to 300-450 mm^3, animals were grouped randomly (d0). The tumor volume was measured 2-3 times each week and the weights of mice were recorded. The tumor volume was calculated according to as the following equation. V=½×a×b^2 wherein, a and b are length and width, respectively. […]

[3] = test system: human liver cancer cells SMMC-7721 transplanted tumor; experiment: SMMC-7721 transplanted tumor on nude mice; type: in vivo; details: intragastrically once a day for 10 days; subcutaneous tumor on nude mice
Description: Experimental procedure: BALB/cA nude mice, 6-7 weeks old, ♀, were purchased from Shanghai SLAC Laboratory Animal Co. LTD. Certificate No.: SCXK (Shanghai) 2007-0005. Habitat: SPF level. The compounds were diluted with 0.5% CMC containing 0.1% Tween-80 to a desired concentration. Human liver cancer cells SMMC-7721 were inoculated on nude mice subcutaneously. After the tumor grew up to 100-200 mm^3, animals were grouped randomly (d0). Mice were consecutively administered with compounds intragastrically once a day for 10 days. The tumor volume was measured 2-3 times each week and the weights of mice were recorded. The tumor volume (V) was calculated according to the following equation: V=½×a×b^2, wherein, a and b are length and width, respectively.

| IC50 [1] [nM] | SMILES | Quantity of Animals Whose Tumors Vanished [2] | Inhibition Rate (%) [2] [%] | Tumor Volume (mm^3) [2] [mm^3] | tumors vanished (animals/group) [2] | recrudescence of tumors [2] | toxicity / survivability of mice [2] | growth of SMMC-7721 transplanted tumor [3] |
| --- | --- | --- | --- | --- | --- | --- | --- | --- |
| < 100 | CCC(C)(C)Oc1ccc(-c2ccc(=O)[nH]n2)cc1C(F)(F)F [YHHU-773] | – | – | – | – | – | – | – |
| < 100 | COC(CNc1ccc(-c2ccc(=O)[nH]n2)cc1C(F)(F)F)OC [YHHU-774] | – | – | – | – | – | – | – |
| < 100 | O=c1ccc(-c2ccc(OCCN3CCOCC3)c(C(F)(F)F)c2)n[nH]1 [YHHU-775] | – | – | – | – | – | – | – |

Further lines, the compound ahead of its results:

| SMILES | IC50 [1] [nM] | Quantity of Animals Whose Tumors Vanished [2] | Inhibition Rate (%) [2] [%] | Tumor Volume (mm^3) [2] [mm^3] | tumors vanished (animals/group) [2] | recrudescence of tumors [2] | toxicity / survivability of mice [2] | growth of SMMC-7721 transplanted tumor [3] |
| --- | --- | --- | --- | --- | --- | --- | --- | --- |
| O=c1ccc(-c2ccc(N3CCOCC3)c(C(F)(F)F)c2)n[nH]1 [YHHU-759] | < 10 | 5 | 100 | 367.9 | 5/5 | no recrudescence was observed | no significant toxicity was observed | significantly inhibited the growth |
| O=c1ccc(-c2ccc(N3CCC(O)CC3)c(C(F)(F)F)c2)n[nH]1 [YHHU-776] | < 10 | 5 | 100 | 338.2 | 5/5 | no recrudescence was observed | no significant toxicity was observed | – |

From patent publication US9212146B2, “Substituted pyridazinones for the treatment of tumors” (SHANGHAI INSTITUTE OF MATERIA MEDICA, CHINESE ACADEMY OF …, priority 2008, dated 2015)
